Data: patent US20170198006A1, “PRMT5 INHIBITORS AND USES THEREOF” (Epizyme, Inc., priority 2014, published 2017)
Where two headings read alike, the source gives them in different places.

Biological target: T1, PRMT5/MEP50 (Homo sapiens, UniProt O14744)
T1 construct: Flag-PRMT5; made in house; host or cells: Spodoptera frugiperda (SF9), baculovirus
Experiment: PRMT5 Biochemical Assay (PRMT5/MEP50 enzyme assay on histone H4 peptide substrate, 3H-SAM Flashplate)
Description: S-adenosylmethionine (SAM), S-adenosylhomocysteine (SAH), bicine, KCl, Tween20, dimethylsulfoxide (DMSO), bovine skin gelatin (BSG), and Tris(2-carboxyethyl)phosphine hydrochloride solution (TCEP) were purchased from Sigma-Aldrich at the highest level of purity possible. ^3H-SAM was purchase from American Radiolabeled Chemicals with a specific activity of 80 Ci/mmol. 384-well streptavidin Flashplates were purchased from PerkinElmer.
Peptide representative of human histone H4 residues 1-15 was synthesized with a C-terminal linker-affinity tag motif and a C-terminal amide cap by 21st Century Biochemicals.
The amplified genes were sublconed into pENTR/D/TEV (Life Technologies) and subsequently transferred by Gateway™ attL×attR recombination to pDEST8 baculvirus expression vector (Life Technologies).
Protein over-expression was accomplished by infecting exponentially growing Spodoptera frugiperda (SF9) cell culture at 1.2×10^6 cell/ml with a 5000 fold dilution of BIIC stock. Infections were carried out at 27° C. for 72 hours, harvested by centrifugation, and stored at −80° C. for purification.
Flag-PRMT5/6His-MeP50 was eluted with 300 mM Imidazole in the same buffer.
General Procedure for PRMT5/MEP50 Enzyme Assays on Peptide Substrates.
The assays were all performed in a buffer consisting of 20 mM Bicine (pH=7.6), 1 mM TCEP, 0.005% BSG, and 0.002% Tween20, prepared on the day of use. […] DMSO (1 ul) was added to Columns 11, 12, 23, 24, rows A-H for the maximum signal control and 1 ul of SAH, a known product and inhibitor of PRMT5/MEP50, was added to columns 11, 12, 23, 24, rows I-P for the minimum signal control. A cocktail (40 ul) containing the PRMT5/MEP50 enzyme and the peptide was added by Multidrop Combi (Thermo-Fisher). The compounds were allowed to incubate with PRMT5/MEP50 for 30 min at 25 degrees Celsius, then a cocktail (10 ul) containing ^3H-SAM was added to initiate the reaction (final volume=51 ul). […] The assays were stopped by the addition of non-radioactive SAM (10 ul) to a final concentration of 600 uM, which dilutes the ^3H-SAM to a level where its incorporation into the peptide substrate is no longer detectable. 50 ul of the reaction in the 384-well polypropylene plate was then transferred to a 384-well Flashplate and the biotinylated peptides were allowed to bind to the streptavidin surface for at least 1 hour before being washed three times with 0.1% Tween20 in a Biotek ELx405 plate washer. The plates were then read in a PerkinElmer TopCount plate reader to measure the quantity of ^3H-labeled peptide bound to the Flashplate surface, measured as disintegrations per minute (dpm) or alternatively, referred to as counts per minute (cpm).
Where dpm=disintegrations per minute, cmpd=signal in assay well, and min and max are the respective minimum and maximum signal controls.
Where top and bottom are the normally allowed to float, but may be fixed at 100 or 0 respectively in a 3-parameter fit. The Hill Coefficient normally allowed to float but may also be fixed at 1 in a 3-parameter fit. Y is the % inhibition and X is the compound concentration.

[1] = PRMT5 biochemical assay, read-out: Biochemical IC50

T1 sequence (O14744 with tags, fused parts or gaps): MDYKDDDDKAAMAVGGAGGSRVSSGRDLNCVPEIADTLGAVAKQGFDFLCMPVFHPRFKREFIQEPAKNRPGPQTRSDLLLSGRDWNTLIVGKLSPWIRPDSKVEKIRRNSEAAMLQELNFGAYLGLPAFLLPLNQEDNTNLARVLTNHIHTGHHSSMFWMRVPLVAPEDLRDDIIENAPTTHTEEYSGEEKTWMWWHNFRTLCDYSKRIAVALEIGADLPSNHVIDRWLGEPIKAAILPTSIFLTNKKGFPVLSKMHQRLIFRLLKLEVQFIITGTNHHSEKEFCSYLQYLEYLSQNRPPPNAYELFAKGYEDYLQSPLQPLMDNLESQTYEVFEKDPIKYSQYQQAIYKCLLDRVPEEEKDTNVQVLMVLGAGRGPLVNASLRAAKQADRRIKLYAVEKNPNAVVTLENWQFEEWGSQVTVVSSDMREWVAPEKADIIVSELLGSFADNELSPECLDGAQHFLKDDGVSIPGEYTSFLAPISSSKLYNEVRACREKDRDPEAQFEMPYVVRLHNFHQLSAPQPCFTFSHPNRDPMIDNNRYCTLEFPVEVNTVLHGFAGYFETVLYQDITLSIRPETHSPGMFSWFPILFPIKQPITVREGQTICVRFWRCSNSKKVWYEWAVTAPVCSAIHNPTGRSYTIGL
T1 sequence (Q9BQA1 with tags, fused parts or gaps partner limits assumed): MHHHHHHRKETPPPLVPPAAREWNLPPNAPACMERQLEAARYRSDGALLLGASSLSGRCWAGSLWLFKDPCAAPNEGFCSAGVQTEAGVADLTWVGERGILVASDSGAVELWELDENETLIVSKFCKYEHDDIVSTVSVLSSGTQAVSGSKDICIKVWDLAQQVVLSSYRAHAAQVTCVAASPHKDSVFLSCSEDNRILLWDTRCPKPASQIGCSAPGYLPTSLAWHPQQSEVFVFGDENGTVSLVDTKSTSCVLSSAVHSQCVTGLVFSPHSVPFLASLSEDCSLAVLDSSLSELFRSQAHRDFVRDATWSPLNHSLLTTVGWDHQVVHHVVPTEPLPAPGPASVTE

IC50 [1] [µM]	IC50 [µM]	Structure (SMILES)
< 0.1	–	CN(CCNCCc1ccc(Cl)cc1)C[C@H]1O[C@@H](n2cnc3c(N)ncnc32)[C@H](O)[C@@H]1O [Compound 61-1]
10 to 50	–	COc1cccc(NC(=O)CC2NC(N3CCN(c4ccccc4)CC3)=NC2=O)c1 (stereo not shown) [Compound 61-14]
0.101 to 1	–	CCC(COC)NCCN(C)C[C@H]1O[C@@H](n2cnc3c(N)ncnc32)[C@H](O)[C@@H]1O (stereo partly shown) [Compound 62-1]
1 to 10	–	COc1ccc(NC(=O)CC2NC(N3CCN(c4ccccc4)CC3)=NC2=O)cc1 (stereo not shown) [Compound 62-14]
< 0.1	–	CN(CCNCCOc1ccccc1)C[C@H]1O[C@@H](n2cnc3c(N)ncnc32)[C@H](O)[C@@H]1O [Compound 63-1]
0.101 to 1	–	COc1cc(Cl)ccc1NC(=O)CC1NC(N2CCN(c3ccccc3)CC2)=NC1=O (stereo not shown) [Compound 63-14]
0.101 to 1	–	CNCCNC[C@H]1O[C@@H](n2cnc3c(N)ncnc32)[C@H](O)[C@@H]1O [Compound 64-1]
1 to 10	–	COc1cc(NC(=O)CC2NC(N3CCN(c4ccccc4)CC3)=NC2=O)ccc1Cl (stereo not shown) [Compound 64-14]
0.101 to 1	–	CN(CCNC1CCCC1)C[C@H]1O[C@@H](n2cnc3c(N)ncnc32)[C@H](O)[C@@H]1O [Compound 65-1]
10 to 50	–	O=C(CC1NC(N2CCN(c3ccccc3)CC2)=NC1=O)Nc1ccc2c(c1)OCO2 (stereo not shown) [Compound 65-14]
0.101 to 1	–	CC1CCCCN1CCCNCCN(C)C[C@H]1O[C@@H](n2cnc3c(N)ncnc32)[C@H](O)[C@@H]1O (stereo partly shown) [Compound 66-1]
1 to 10	–	Cc1cc(Cl)ccc1NC(=O)CC1NC(N2CCN(c3ccccc3)CC2)=NC1=O (stereo not shown) [Compound 66-14]
0.101 to 1	–	COCC(C)NCCN(C)C[C@H]1O[C@@H](n2cnc3c(N)ncnc32)[C@H](O)[C@@H]1O (stereo partly shown) [Compound 67-1]
1 to 10	–	Cc1ccc(NC(=O)CC2NC(N3CCN(c4ccccc4)CC3)=NC2=O)cc1 (stereo not shown) [Compound 67-14]
< 0.1	–	CCCCNCCN(C)C[C@H]1O[C@@H](n2cnc3c(N)ncnc32)[C@H](O)[C@@H]1O [Compound 68-1]
10 to 50	–	O=C(CC1NC(N2CCN(c3ccccc3)CC2)=NC1=O)Nc1ccccc1Br (stereo not shown) [Compound 68-14]
0.101 to 1	–	Cc1ccccc1C(=O)CC1NC(N2CCN(c3ccccc3)CC2)=NC1=O (stereo not shown) [Compound 69-14]
< 0.1	–	CN(CCNCCc1ccc(O)cc1)C[C@H]1O[C@@H](n2cnc3c(N)ncnc32)[C@H](O)[C@@H]1O [Compound 70-1]
10 to 50	–	O=C(CC1NC(N2CCN(c3ccccc3)CC2)=NC1=O)NCC1CCOCC1 (stereo not shown) [Compound 70-14]
0.101 to 1	–	CN(CCNC1CCC(C(C)(C)C)CC1)C[C@H]1O[C@@H](n2cnc3c(N)ncnc32)[C@H](O)[C@@H]1O (stereo partly shown) [Compound 71-1]
1 to 10	–	COc1ccccc1C(=O)CC1NC(N2Cc3ccccc3C2)=NC1=O (stereo not shown) [Compound 71-14]
< 0.1	–	CN(CCNCCc1c(Cl)cccc1Cl)C[C@H]1O[C@@H](n2cnc3c(N)ncnc32)[C@H](O)[C@@H]1O [Compound 72-1]
0.101 to 1	–	O=C(CC1NC(N2CC=C(c3ccccc3)CC2)=NC1=O)Nc1ccc(Cl)cc1 (stereo not shown) [Compound 72-14]
0.101 to 1	–	CN(CCNCCOc1cccc(F)c1)C[C@H]1O[C@@H](n2cnc3c(N)ncnc32)[C@H](O)[C@@H]1O [Compound 73-1]
0.101 to 1	–	O=C(CC1NC(N2CCC(O)(c3ccccc3)CC2)=NC1=O)Nc1ccc(Cl)cc1 (stereo not shown) [Compound 73-14]

IC50 [1] [µM]	IC50 [µM]	Structure (SMILES)
< 0.1	–	Nc1ncnc2c1ncn2[C@@H]1O[C@H](CNCCNCCc2ccc(Cl)cc2)[C@@H](O)[C@H]1O [Compound 74-1]
1 to 10	–	Cc1cc(NC(=O)CC2NC(N3CCN(c4ccccc4)CC3)=NC2=O)ccc1Cl (stereo not shown) [Compound 74-14]
< 0.1	–	CCCCOC(=O)c1ccc(NC(=O)NCCNC[C@H]2O[C@@H](n3cnc4c(N)ncnc43)[C@H](O)[C@@H]2O)cc1 [Compound 75-1]
0.101 to 1	–	O=C(CC1NC(N2CCN(c3ccccc3)CC2)=NC1=O)c1ccccc1Br (stereo not shown) [Compound 75-14]
0.101 to 1	–	CC(=O)N(CCNCCc1ccc(Cl)cc1)C[C@H]1O[C@@H](n2cnc3c(N)ncnc32)[C@H](O)[C@@H]1O [Compound 76-1]
0.101 to 1	–	CC(C)N(CCNCCc1ccc(Cl)cc1)C[C@H]1O[C@@H](n2cnc3c(N)ncnc32)[C@H](O)[C@@H]1O [Compound 77-1]
< 0.1	–	Nc1ncnc2c1ncn2[C@@H]1O[C@H](CN(CCCC(=O)OCc2ccccc2)CCNCCc2ccc(Cl)cc2)[C@@H](O)[C@H]1O [Compound 78-1]
0.101 to 1	–	CN(CCNCCc1ccccc1)C[C@H]1O[C@@H](n2cnc3c(N)ncnc32)[C@H](O)[C@@H]1O [Compound 79-1]
< 0.1	–	Nc1ncnc2c1ncn2[C@@H]1O[C@H](CN(CCCC(=O)O)CCNCCc2ccc(Cl)cc2)[C@@H](O)[C@H]1O [Compound 80-1]
< 0.1	–	Nc1ncnc2c1ncn2[C@@H]1O[C@H](CN(CCNCCc2ccc(Cl)cc2)Cc2ccccc2)[C@@H](O)[C@H]1O [Compound 81-1]
0.101 to 1	–	CCN(CCNCCc1ccc(Cl)cc1)C[C@H]1O[C@@H](n2cnc3c(N)ncnc32)[C@H](O)[C@@H]1O [Compound 82-1]
0.101 to 1	–	N=C(NC[C@H]1O[C@@H](n2cnc3c(N)ncnc32)[C@H](O)[C@@H]1O)c1ccccc1 [Compound 83-1]
0.101 to 1	–	Nc1ncnc2c1ncn2[C@@H]1O[C@H](CN2CCCN(c3ccccn3)CC2)[C@@H](O)[C@H]1O [Compound 84-1]
0.101 to 1	–	CN1CCC(N(C)C[C@H]2O[C@@H](n3cnc4c(N)ncnc43)[C@H](O)[C@@H]2O)C1 (stereo partly shown) [Compound 85-1]
0.101 to 1	–	CN1CC[C@@H](N(C)C[C@H]2O[C@@H](n3cnc4c(N)ncnc43)[C@H](O)[C@@H]2O)C1 [Compound 86-1]
0.101 to 1	–	Nc1ncnc2c1ncn2[C@@H]1O[C@H](CSC[C@H](N)C(=O)O)[C@@H](O)[C@H]1O [Compound 88-1]
–	< 0.1	NCCCSC[C@H]1O[C@@H](n2cnc3c(N)ncnc32)[C@H](O)[C@@H]1O [Compound 89-1]
< 0.1	–	Nc1ncnc2c1ncn2[C@@H]1O[C@H](CSCCC(N)CO)[C@@H](O)[C@H]1O (stereo partly shown) [Compound 90-1]
< 0.1	–	Nc1ncnc2c1ncn2[C@@H]1O[C@H](CSCC[C@H](N)CO)[C@@H](O)[C@H]1O [Compound 91-1, (2S, 3S, 4R, 5R)-2-((((S)-3-amino-4-hydroxybutyl)thio)methyl)-5-(6-amino-9H-purin-9-yl)tetrahydrofuran-3,4-diol]
0.101 to 1	–	O=C1c2ccccc2C(=O)N1CCCSC[C@H]1C[C@@H](n2ccc3cncnc32)[C@H](O)[C@@H]1O [Compound 93-1]
0.101 to 1	–	CCSC[C@H]1O[C@@H](n2cnc3c(N)ncnc32)[C@H](O)[C@@H]1O [Compound 94-1]
0.101 to 1	–	Nc1ncnc2c1ncn2[C@@H]1O[C@H](CSCCCC(=O)O)[C@@H](O)[C@H]1O [Compound 95-1]
0.101 to 1	–	CSC[C@H]1O[C@@H](n2cnc3c(N)ncnc32)[C@H](O)[C@@H]1O [Compound 96-1]
< 0.1	–	CN(CCCN)C[C@H]1O[C@@H](n2cnc3c(N)ncnc32)[C@H](O)[C@@H]1O [Compound 97-1]
